Assay results taken from patent US9597280B2, “Cosmetic compositions comprising microalgal oil” (TerraVia Holdings, Inc., priority 2013, dated 2017).

What was measured:
MatTek's EpiDerm tissue [1] = experiment: Thymine dimer formation in EpiDerm skin tissue model after UVB exposure; format: cell-based, human; details: positive control, topical 24 hours after UVB 300 mJ/cm2; mean ± standard deviation; significantly different from Untreated (p < 0.05)
Procedure: Oil was extracted from heterotrophic ally cultivated Chlorella protothecoides followed by refining, bleaching and deodorization. The oil was tested for its ability to prevent thymine dimerization in a skin tissue model upon exposure to UVB (ultraviolet light of the B type). The testing system used for this assay was MatTek's EpiDerm tissue, a skin model that consists of normal human-derived epidermal keratinocytes cultured to form a multilayered, highly differentiated model of the human epidermis. For this study, the tissues were exposed to UVB (300 mJ/cm2) and then treated topically for 24 hours with the test material. Following the treatment the DNA was extracted from the EpiDerm tissues and assayed for thymine dimer content. […] The primary antibody was then detected using a secondary antibody conjugated to a fluorescent dye. […] With this method, the fluorescence intensity of each sample is proportional to the amount of the thymine dimers present in the sample. […] UVB lamp intensity was measured using a UVX radiometer with a probe specific for UVB (detects 260-360 nm, max absorbance at 310 nm, calibrated at 310 nm) to determine exposure times required for the appropriate UVB dose. […] Extracted DNA was quantified via a fluorometric assay. […]

MatTek's EpiDerm tissue [2] = experiment: MTT (viability) assay in EpiDerm skin tissue model after UVB exposure; format: cell-based, human; details: positive control, topical 24 hours after UVB 300 mJ/cm2; mean ± standard deviation; significantly different from Untreated (p < 0.05)
Text: Oil was extracted from heterotrophically cultivated Chlorella protothecoides followed by refining, bleaching and deodorization. A skin tissue model was used to evaluate changes in tissue viability after exposure to UVB radiation. The testing system used for this assay was MatTek's EpiDerm tissue, a skin model that consists of normal human-derived epidermal keratinocytes cultured to form a multilayered, highly differentiated model of the human epidermis. For this study, the tissues were exposed to UVB (300 mJ/cm2) and then treated topically for 24 hours with the test material. Following the treatment tissue changes in tissue viability were determined using an MTT assay. […] Reduction of MTT by mitochondria in viable cells results in the formation of insoluble purple formazin crystals that are extracted from the cells with isopropanol and quantified spectrophotometrically. […] UVB lamp intensity was measured using a UVX radiometer with a probe specific for UVB (detects 260-360 nm, max absorbance at 310 nm, calibrated at 310 nm) to determine exposure times required for the appropriate UVB dose. […] After the extraction, a 200 μl sample of the isopropanol/MTT mixture was transferred to a 96-well plate and the absorbance of the sample was read at 540 nm with a plate reader using 200 μl of isopropanol as the blank. […] Values are expressed as means±standard deviation.

Question: Which results are given for `Cc1c(C)c2c(c(C)c1O)CCC(C)(C(=O)O)O2` (centres unmarked) [Trolox, 6-hydroxy-2,5,7,8-tetramethylchroman-2-carboxylic acid]?
Answer: Thymine Dimer Formation, Corrected RFU (MatTek's EpiDerm tissue [1]): 5198 ± 513 RFU; Viability (Percent of Non-UVB Exposed) (MatTek's EpiDerm tissue [2]): 100 ± 1.3% of Non-UVB Exposed
